Measured values taken from PubChem BioAssay (NCI).
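Protocol summary: plate cells (96-well), add compound at 5 concentrations, incubate 48 h, interpolate endpoints linearly. The concentration for 50% growth inhibition is given as GI50. At the TGI there is no net growth.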

Experiments:
Test in all cases: growth of human tumour cells (NCI), 48 h
EKVX NSCLC = test system: EKVX NSCLC
CCRF-CEM leukemia = test system: CCRF-CEM leukemia
OVCAR-8 ovarian = test system: OVCAR-8 ovarian
SK-MEL-5 melanoma = test system: SK-MEL-5 melanoma
OVCAR-4 ovarian = test system: OVCAR-4 ovarian
IGROV1 ovarian = test system: IGROV1 ovarian
MALME-3M melanoma = test system: MALME-3M melanoma
MDA-MB-231 breast = test system: MDA-MB-231 breast
UACC-257 melanoma = test system: UACC-257 melanoma
SF-295 CNS = test system: SF-295 CNS
HCT-116 colon = test system: HCT-116 colon
RPMI-8226 leukemia = test system: RPMI-8226 leukemia
RXF 393 renal = test system: RXF 393 renal
OVCAR-3 ovarian = test system: OVCAR-3 ovarian
BT-549 breast = test system: BT-549 breast
SF-268 CNS = test system: SF-268 CNS
U251 CNS = test system: U251 CNS
LOX IMVI melanoma = test system: LOX IMVI melanoma
NCI-H23 lung = test system: NCI-H23 lung
HS 578T breast = test system: HS 578T breast
SK-OV-3 ovarian = test system: SK-OV-3 ovarian
NCI-H522 lung = test system: NCI-H522 lung
A549 NSCLC = test system: A549 NSCLC
A498 renal = test system: A498 renal
MOLT-4 leukemia = test system: MOLT-4 leukemia
OVCAR-5 ovarian = test system: OVCAR-5 ovarian
SR leukemia = test system: SR leukemia
SK-MEL-28 melanoma = test system: SK-MEL-28 melanoma
SW-620 colon = test system: SW-620 colon
SN12C renal = test system: SN12C renal
SNB-19 CNS = test system: SNB-19 CNS
NCI/ADR-RES ovarian = test system: NCI/ADR-RES ovarian
MDA-MB-435 = test system: MDA-MB-435
TK-10 renal = test system: TK-10 renal
SK-MEL-2 melanoma = test system: SK-MEL-2 melanoma
K-562 leukemia = test system: K-562 leukemia
CAKI-1 renal = test system: CAKI-1 renal
HOP-62 NSCLC = test system: HOP-62 NSCLC
HCC-2998 colon = test system: HCC-2998 colon
COLO 205 colon = test system: COLO 205 colon
HCT-15 colon = test system: HCT-15 colon
KM12 colon = test system: KM12 colon
SF-539 CNS = test system: SF-539 CNS
SNB-75 CNS = test system: SNB-75 CNS
NCI-H226 lung = test system: NCI-H226 lung
M14 melanoma = test system: M14 melanoma
T-47D breast = test system: T-47D breast
HT29 colon = test system: HT29 colon
MCF7 breast = test system: MCF7 breast
ACHN renal = test system: ACHN renal
HL-60(TB) leukemia = test system: HL-60(TB) leukemia
UACC-62 melanoma = test system: UACC-62 melanoma
UO-31 renal = test system: UO-31 renal
786-0 renal = test system: 786-0 renal
PC-3 prostate = test system: PC-3 prostate
NCI-H460 lung = test system: NCI-H460 lung
DU-145 prostate = test system: DU-145 prostate

FC(F)(F)c1ccc(Nc2nc(-c3c(C(F)(F)F)nc4ccccn34)cs2)cc1
GI50 (EKVX NSCLC): 158 nM | TGI (EKVX NSCLC): 7840 nM | GI50 (CCRF-CEM leukemia): 50.2 nM | TGI (CCRF-CEM leukemia): > 30800 nM | GI50 (OVCAR-8 ovarian): 180 nM | TGI (OVCAR-8 ovarian): 7740 nM | GI50 (SK-MEL-5 melanoma): 35.8 nM | TGI (SK-MEL-5 melanoma): 1490 nM | GI50 (OVCAR-4 ovarian): 1220 nM | TGI (OVCAR-4 ovarian): 15600 nM | GI50 (IGROV1 ovarian): 422 nM | TGI (IGROV1 ovarian): 12100 nM | GI50 (MALME-3M melanoma): 64 nM | TGI (MALME-3M melanoma): 4630 nM | GI50 (MDA-MB-231 breast): 810 nM | TGI (MDA-MB-231 breast): 6930 nM | GI50 (UACC-257 melanoma): 2060 nM | TGI (UACC-257 melanoma): 8640 nM | GI50 (SF-295 CNS): 33 nM | TGI (SF-295 CNS): 1280 nM | GI50 (HCT-116 colon): 42.6 nM | TGI (HCT-116 colon): 2380 nM | GI50 (RPMI-8226 leukemia): 73.9 nM | TGI (RPMI-8226 leukemia): 6010 nM | GI50 (RXF 393 renal): 38.9 nM | TGI (RXF 393 renal): 316 nM | GI50 (OVCAR-3 ovarian): 26.4 nM | TGI (OVCAR-3 ovarian): 78.7 nM | GI50 (BT-549 breast): 56.4 nM | TGI (BT-549 breast): 4020 nM | GI50 (SF-268 CNS): 75.4 nM | TGI (SF-268 CNS): 10700 nM | GI50 (U251 CNS): 76.4 nM | TGI (U251 CNS): 11000 nM | GI50 (LOX IMVI melanoma): 53.3 nM | TGI (LOX IMVI melanoma): 7950 nM | GI50 (NCI-H23 lung): 57.9 nM | TGI (NCI-H23 lung): 5510 nM | GI50 (HS 578T breast): 35.6 nM | TGI (HS 578T breast): 2120 nM | GI50 (SK-OV-3 ovarian): 49.1 nM | TGI (SK-OV-3 ovarian): 5030 nM | GI50 (NCI-H522 lung): 28.4 nM | TGI (NCI-H522 lung): 754 nM | GI50 (A549 NSCLC): 62.5 nM | TGI (A549 NSCLC): 10600 nM | GI50 (A498 renal): 26.8 nM | TGI (A498 renal): 193 nM | GI50 (MOLT-4 leukemia): 146 nM | TGI (MOLT-4 leukemia): > 28700 nM | GI50 (OVCAR-5 ovarian): 476 nM | TGI (OVCAR-5 ovarian): 16500 nM | GI50 (SR leukemia): 40.2 nM | TGI (SR leukemia): > 39400 nM | GI50 (SK-MEL-28 melanoma): 1050 nM | TGI (SK-MEL-28 melanoma): 16900 nM | GI50 (SW-620 colon): 37.3 nM | TGI (SW-620 colon): 12300 nM | GI50 (SN12C renal): 297 nM | TGI (SN12C renal): 8280 nM | GI50 (SNB-19 CNS): 62.5 nM | TGI (SNB-19 CNS): 18500 nM | GI50 (NCI/ADR-RES ovarian): 35 nM | TGI (NCI/ADR-RES ovarian): 2070 nM | GI50 (MDA-MB-435): 16.1 nM | TGI (MDA-MB-435): 47.3 nM | GI50 (TK-10 renal): 917 nM | TGI (TK-10 renal): 8120 nM | GI50 (SK-MEL-2 melanoma): 73.4 nM | TGI (SK-MEL-2 melanoma): 6760 nM | GI50 (K-562 leukemia): 39.6 nM | TGI (K-562 leukemia): 8180 nM | GI50 (CAKI-1 renal): 41.9 nM | TGI (CAKI-1 renal): 8200 nM | GI50 (HOP-62 NSCLC): 56.4 nM | TGI (HOP-62 NSCLC): 9140 nM | GI50 (HCC-2998 colon): 180 nM | TGI (HCC-2998 colon): 9740 nM | GI50 (COLO 205 colon): 32.3 nM | TGI (COLO 205 colon): 167 nM | GI50 (HCT-15 colon): 40.6 nM | TGI (HCT-15 colon): 5640 nM | GI50 (KM12 colon): 39.3 nM | TGI (KM12 colon): 4230 nM | GI50 (SF-539 CNS): 38.3 nM | TGI (SF-539 CNS): 276 nM | GI50 (SNB-75 CNS): 29.1 nM | TGI (SNB-75 CNS): 1050 nM | GI50 (NCI-H226 lung): 358 nM | TGI (NCI-H226 lung): 4490 nM | GI50 (M14 melanoma): 43 nM | TGI (M14 melanoma): 1220 nM | GI50 (T-47D breast): 45.3 nM | TGI (T-47D breast): 9070 nM | GI50 (HT29 colon): 36.4 nM | TGI (HT29 colon): 1990 nM | GI50 (MCF7 breast): 34.1 nM | TGI (MCF7 breast): 5430 nM | GI50 (ACHN renal): 61 nM | TGI (ACHN renal): 6830 nM | GI50 (HL-60(TB) leukemia): 40.6 nM | TGI (HL-60(TB) leukemia): 2250 nM | GI50 (UACC-62 melanoma): 38.5 nM | TGI (UACC-62 melanoma): 3430 nM | GI50 (UO-31 renal): 289 nM | TGI (UO-31 renal): 6890 nM | GI50 (786-0 renal): 39.8 nM | TGI (786-0 renal): 2220 nM | GI50 (PC-3 prostate): 42.5 nM | TGI (PC-3 prostate): 8540 nM | GI50 (NCI-H460 lung): 35.3 nM | TGI (NCI-H460 lung): 4750 nM | GI50 (DU-145 prostate): 40.2 nM | TGI (DU-145 prostate): 2150 nM
